Data on one compound can be found in article PMC9719519, “Non-classical ferroptosis inhibition by a small molecule targeting PHB2” (Nature Communications, 2022).

Experiment in all cases: biochemical
Set-up in all cases: Eurofins recombinant human kinase profiling, remaining kinase activity as % of control, 10 uM ATP
Common to all, as to conditions: ATP 10 uM; read-out: %Ctrl@10 μM

One assay deals with AAK1(h) (Homo sapiens, UniProt Q2M2I8). The procedure, abridged: (§1)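 Recombinant human kinases, 401 in total, screened using an outsourced kinase profiling assay.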
For another assay, the target named is T1, AMPKα2(h) (Homo sapiens, UniProt P54646).
T1 construct: gene PRKAA2
Put shortly: as §1

Another assay deals with ATM(h) (Homo sapiens, UniProt Q13315). Put shortly: as §1
A further assay concerns the target BMPR2(h) (Homo sapiens, UniProt Q13873). Put shortly: as §1
A further assay deals with CDK2/cyclinE(h) (Homo sapiens, UniProt P24941). Put shortly: as §1
Another assay concerns the target T2, CK2α2(h) (Homo sapiens, UniProt P19784).
T2 construct: gene CSNK2A2
The procedure, abridged:
as §1

Another assay has as its target Cdc7/cyclinB1(h) (Homo sapiens, UniProt O00311). The procedure, abridged:
as §1

The target of the next assay is T3, DRAK1(h) (Homo sapiens, UniProt Q9UEE5).
T3 construct: gene STK17A
The procedure, abridged:
as §1

In another assay the target is MARK4(h) (Homo sapiens, UniProt Q96L34). Put shortly:
as §1

For the next assay, the target named is T4, MINK(h) (Homo sapiens, UniProt Q8N4C8).
T4 construct: gene MINK1
The procedure, abridged: as §1

The target of a further assay is T5, MLK2(h) (Homo sapiens, UniProt Q02779).
T5 construct: gene MAP3K10
The procedure, abridged: as §1

A further assay has as its target T6, MRCKγ(h) (Homo sapiens, UniProt Q6DT37).
T6 construct: gene CDC42BPG
Put shortly:
as §1

The target of a further assay is PAK4(h) (Homo sapiens, UniProt O96013). The procedure, abridged:
as §1

In a further assay the target is T7, PDGFRα(V561D)(h) (Homo sapiens, UniProt P16234, V561D).
T7 construct: gene PDGFRA
Put shortly:
as §1

The target of another assay is T8, PEK(h) (Homo sapiens, UniProt Q9NZJ5).
T8 construct: gene EIF2AK3
Put shortly: as §1

For a further assay, the target named is T9, PKCθ(h) (Homo sapiens, UniProt Q04759).
T9 construct: gene PRKCQ
The procedure, abridged: as §1

A further assay deals with T10, PKG1β(h) (Homo sapiens, UniProt Q13976).
T10 construct: gene PRKG1; isoform 1beta
The procedure, abridged:
as §1

The target of the next assay is T11, PhKγ1(h) (Homo sapiens, UniProt Q16816).
T11 construct: gene PHKG1
The procedure, abridged: as §1

A further assay deals with T12, ROCK-I(h) (Homo sapiens, UniProt Q13464).
T12 construct: gene ROCK1
The procedure, abridged:
as §1

The target of a further assay is T13, Ros(h) (Homo sapiens, UniProt P08922).
T13 construct: gene ROS1
The procedure, abridged:
as §1

For a further assay, the target named is ULK2(h) (Homo sapiens, UniProt Q8IYT8). Put shortly: as §1
Another assay concerns the target T14, cKit(D816H)(h) (Homo sapiens, UniProt P10721, D816H).
T14 construct: gene KIT
The procedure, abridged: as §1

T10 sequence (Q13976 whole entry, canonical isoform): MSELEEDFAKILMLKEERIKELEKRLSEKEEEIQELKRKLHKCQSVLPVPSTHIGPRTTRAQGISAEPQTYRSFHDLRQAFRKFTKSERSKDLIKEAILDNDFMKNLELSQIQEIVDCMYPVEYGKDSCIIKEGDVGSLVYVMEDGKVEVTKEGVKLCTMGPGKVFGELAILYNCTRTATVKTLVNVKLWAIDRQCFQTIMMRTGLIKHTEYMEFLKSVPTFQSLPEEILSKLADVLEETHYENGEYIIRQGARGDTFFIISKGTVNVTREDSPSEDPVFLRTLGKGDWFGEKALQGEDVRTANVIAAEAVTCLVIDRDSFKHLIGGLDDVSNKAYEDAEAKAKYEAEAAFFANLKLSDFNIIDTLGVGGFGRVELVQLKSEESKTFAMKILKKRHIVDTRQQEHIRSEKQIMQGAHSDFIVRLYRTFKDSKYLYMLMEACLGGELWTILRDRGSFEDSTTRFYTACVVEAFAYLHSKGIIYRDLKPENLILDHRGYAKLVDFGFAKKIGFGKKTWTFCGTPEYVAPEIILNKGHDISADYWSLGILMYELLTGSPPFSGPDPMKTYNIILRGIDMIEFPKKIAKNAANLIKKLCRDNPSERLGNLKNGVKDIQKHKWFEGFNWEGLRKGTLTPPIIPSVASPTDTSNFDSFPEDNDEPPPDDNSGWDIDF
MARK4(h), sequence (Q96L34 whole entry): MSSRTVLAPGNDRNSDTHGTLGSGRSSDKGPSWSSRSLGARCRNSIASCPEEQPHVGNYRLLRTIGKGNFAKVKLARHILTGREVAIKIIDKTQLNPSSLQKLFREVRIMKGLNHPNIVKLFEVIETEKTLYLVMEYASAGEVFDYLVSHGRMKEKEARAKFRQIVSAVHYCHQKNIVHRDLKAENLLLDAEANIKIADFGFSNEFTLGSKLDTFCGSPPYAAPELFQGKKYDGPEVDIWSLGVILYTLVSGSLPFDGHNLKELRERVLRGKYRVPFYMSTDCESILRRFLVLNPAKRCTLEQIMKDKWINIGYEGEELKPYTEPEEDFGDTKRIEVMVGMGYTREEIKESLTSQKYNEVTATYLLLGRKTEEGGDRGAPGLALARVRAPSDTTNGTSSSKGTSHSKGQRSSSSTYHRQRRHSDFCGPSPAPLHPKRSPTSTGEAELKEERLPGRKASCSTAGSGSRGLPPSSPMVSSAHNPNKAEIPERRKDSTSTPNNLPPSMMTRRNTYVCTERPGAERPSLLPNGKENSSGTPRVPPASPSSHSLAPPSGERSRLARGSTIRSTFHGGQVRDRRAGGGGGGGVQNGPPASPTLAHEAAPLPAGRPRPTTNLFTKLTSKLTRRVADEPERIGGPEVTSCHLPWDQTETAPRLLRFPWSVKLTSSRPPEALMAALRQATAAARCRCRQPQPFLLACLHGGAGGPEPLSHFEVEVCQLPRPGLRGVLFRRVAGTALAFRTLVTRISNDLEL
Cdc7/cyclinB1(h), sequence (O00311 whole entry): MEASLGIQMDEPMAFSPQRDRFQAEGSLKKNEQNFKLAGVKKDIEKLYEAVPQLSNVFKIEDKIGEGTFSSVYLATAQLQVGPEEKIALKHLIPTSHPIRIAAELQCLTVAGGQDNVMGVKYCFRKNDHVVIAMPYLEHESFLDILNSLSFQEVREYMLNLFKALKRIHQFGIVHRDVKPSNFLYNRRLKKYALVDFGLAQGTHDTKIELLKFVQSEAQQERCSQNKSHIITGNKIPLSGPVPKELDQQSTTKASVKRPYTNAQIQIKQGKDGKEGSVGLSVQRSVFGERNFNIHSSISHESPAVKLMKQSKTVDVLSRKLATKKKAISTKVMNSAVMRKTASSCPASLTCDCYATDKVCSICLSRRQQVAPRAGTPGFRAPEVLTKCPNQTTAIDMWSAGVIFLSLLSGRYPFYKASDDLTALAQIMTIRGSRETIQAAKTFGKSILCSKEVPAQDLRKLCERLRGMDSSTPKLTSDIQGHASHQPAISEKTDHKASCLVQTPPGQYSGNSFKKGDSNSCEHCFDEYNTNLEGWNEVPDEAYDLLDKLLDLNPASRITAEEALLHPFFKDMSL
Cdc7/cyclinB1(h), sequence (P14635 whole entry partner): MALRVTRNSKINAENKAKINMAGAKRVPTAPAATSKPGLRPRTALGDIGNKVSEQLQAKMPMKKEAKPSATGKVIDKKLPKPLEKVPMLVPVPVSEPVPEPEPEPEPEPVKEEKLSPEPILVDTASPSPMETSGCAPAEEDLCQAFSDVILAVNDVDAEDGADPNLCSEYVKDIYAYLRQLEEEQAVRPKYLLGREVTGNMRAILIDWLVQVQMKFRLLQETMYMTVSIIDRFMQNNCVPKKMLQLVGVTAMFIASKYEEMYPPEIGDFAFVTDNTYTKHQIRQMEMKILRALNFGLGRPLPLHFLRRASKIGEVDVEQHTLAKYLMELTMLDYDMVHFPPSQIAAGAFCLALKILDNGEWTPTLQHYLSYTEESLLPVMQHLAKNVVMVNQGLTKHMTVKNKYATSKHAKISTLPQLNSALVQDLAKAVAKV
T7 sequence (P16234 whole entry V561D): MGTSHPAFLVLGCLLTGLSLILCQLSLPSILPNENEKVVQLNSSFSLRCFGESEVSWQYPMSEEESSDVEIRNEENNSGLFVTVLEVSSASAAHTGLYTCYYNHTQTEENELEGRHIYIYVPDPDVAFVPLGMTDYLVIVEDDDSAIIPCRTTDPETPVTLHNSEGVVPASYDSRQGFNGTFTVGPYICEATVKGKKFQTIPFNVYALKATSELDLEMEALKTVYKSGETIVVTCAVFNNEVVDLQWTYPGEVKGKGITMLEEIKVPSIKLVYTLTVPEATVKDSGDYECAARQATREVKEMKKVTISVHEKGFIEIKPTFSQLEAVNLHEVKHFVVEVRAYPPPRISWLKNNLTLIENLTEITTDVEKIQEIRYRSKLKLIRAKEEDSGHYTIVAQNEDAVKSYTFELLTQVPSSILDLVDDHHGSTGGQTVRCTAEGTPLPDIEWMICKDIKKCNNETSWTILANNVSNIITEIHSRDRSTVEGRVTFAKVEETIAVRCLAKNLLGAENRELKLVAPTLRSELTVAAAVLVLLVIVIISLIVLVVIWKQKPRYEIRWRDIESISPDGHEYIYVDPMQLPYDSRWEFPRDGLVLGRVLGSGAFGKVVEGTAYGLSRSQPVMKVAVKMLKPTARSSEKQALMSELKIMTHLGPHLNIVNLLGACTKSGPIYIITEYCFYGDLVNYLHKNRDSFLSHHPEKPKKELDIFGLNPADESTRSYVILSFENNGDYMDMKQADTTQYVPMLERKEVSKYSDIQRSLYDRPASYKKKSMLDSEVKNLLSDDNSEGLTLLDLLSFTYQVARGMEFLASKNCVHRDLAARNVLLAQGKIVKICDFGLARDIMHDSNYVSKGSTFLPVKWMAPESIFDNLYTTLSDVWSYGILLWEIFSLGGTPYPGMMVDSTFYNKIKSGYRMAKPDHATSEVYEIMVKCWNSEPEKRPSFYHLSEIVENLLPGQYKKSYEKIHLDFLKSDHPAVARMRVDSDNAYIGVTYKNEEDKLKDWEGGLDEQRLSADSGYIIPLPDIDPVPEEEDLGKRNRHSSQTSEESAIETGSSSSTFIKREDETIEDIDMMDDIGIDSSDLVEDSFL
T5 sequence (Q02779 whole entry): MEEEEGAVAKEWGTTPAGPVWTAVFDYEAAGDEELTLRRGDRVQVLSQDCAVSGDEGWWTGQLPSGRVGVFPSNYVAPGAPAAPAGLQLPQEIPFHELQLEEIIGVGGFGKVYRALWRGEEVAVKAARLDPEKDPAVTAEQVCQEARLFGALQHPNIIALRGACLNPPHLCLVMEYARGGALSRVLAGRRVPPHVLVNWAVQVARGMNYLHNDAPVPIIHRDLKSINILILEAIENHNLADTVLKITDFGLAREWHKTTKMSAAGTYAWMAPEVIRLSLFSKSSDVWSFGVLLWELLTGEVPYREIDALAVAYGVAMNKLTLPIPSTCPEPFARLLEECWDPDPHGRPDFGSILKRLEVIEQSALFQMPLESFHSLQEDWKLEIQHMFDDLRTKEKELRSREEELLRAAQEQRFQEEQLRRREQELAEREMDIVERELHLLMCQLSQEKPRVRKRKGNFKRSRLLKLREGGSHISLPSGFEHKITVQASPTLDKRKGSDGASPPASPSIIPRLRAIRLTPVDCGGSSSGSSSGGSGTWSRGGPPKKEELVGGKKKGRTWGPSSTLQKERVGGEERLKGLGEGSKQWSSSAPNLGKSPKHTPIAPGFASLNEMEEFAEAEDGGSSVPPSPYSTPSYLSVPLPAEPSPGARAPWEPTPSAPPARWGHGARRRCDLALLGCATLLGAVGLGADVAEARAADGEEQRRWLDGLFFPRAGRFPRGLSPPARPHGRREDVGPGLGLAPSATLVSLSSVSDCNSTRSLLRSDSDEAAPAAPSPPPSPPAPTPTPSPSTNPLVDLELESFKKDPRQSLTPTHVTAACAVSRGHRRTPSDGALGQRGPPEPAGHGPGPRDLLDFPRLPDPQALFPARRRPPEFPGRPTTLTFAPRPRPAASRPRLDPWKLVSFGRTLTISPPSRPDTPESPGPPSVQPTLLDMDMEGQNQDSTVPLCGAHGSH
PAK4(h), sequence (O96013 whole entry): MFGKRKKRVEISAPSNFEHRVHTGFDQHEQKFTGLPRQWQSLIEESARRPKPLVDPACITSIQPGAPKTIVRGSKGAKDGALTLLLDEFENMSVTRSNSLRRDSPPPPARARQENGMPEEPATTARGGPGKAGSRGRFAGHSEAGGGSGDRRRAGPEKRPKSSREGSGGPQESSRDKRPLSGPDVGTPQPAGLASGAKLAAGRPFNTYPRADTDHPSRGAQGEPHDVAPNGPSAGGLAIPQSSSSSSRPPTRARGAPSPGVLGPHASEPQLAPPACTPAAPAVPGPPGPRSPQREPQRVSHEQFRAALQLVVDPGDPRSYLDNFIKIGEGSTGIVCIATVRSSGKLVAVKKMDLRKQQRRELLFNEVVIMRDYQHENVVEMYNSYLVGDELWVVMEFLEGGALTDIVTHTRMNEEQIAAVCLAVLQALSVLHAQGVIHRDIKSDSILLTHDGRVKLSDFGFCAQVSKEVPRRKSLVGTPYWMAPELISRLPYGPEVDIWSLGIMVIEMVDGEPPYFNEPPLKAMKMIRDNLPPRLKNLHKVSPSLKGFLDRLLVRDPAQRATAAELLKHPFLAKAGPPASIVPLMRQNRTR

In the case of `C1=C(c2nc(-c3cnn(C4CCNCC4)c3)cn3cc(-c4ccccc4)nc23)CCOC1` [YL-939], the remaining activity at 10 µM at AAK1(h) is 68%; at AMPKα2(h), 100%; on ATM(h), 86%; at BMPR2(h), 99%; on CDK2/cyclinE(h) it was 85%; at CK2α2(h) it was 98%. Further, the remaining activity at 10 µM is 104% at Cdc7/cyclinB1(h); 60% at DRAK1(h); 111% at MARK4(h); 95% at MINK(h); 82% at MLK2(h); 95% at MRCKγ(h). The remaining activity at 10 µM at PAK4(h) stood at 97%; on PDGFRα(V561D)(h) it was 101%; on PEK(h) it was 99%; at PKCθ(h), 93%; on PKG1β(h), 83%; at PhKγ1(h) it was 85%. The remaining activity at 10 µM on ROCK-I(h) turned out to be 94%; at Ros(h), 97%; on ULK2(h), 77%; at cKit(D816H)(h), 90%.
